In patent US20110281802A1, “COMPOSITION FOR TREATMENT AND PREVENTION OF HAIR LOSS AND PREMATURE GRAYING OF HAIR” (Immudiagnostik AG, priority 2007, published 2011):

Tests used:
Type in all cases: cell-based
human hair follicles = assay: Hair cycle staging of cultured hair follicles (assays #1, #2, #3)
Description: Photodocuments from the Fontana Masson staining were used for hair follicle staging according to previously well-defined morphological criteria (Stenn K S et al, Controls of Hair Follicle Cycling; Physiol Rev 2001, 81:449-494, Müller-Röver S et al, A Comprehensive Guide for the Accurate Classification of Murine Hair Follicles in Distinct Hair Cycle Stages; J Invest Dermatol 2001, 117:3-15). The percentage of hair follicles in anagen, early, mid and late catagen was determined.
Photodocuments from the Fontana Masson staining were used for hair follicle staging according to previously well-defined morphological criteria (Stenn K S et al, Controls of Hair Follicle Cycling; Physiol Rev 2001, 81:449-494, Müller-Röver S et al, A Comprehensive Guide for the Accurate Classification of Murine Hair Follicles in Distinct Hair Cycle Stages; J Invest Dermatol 2001, 117:3-15). The percentage of hair follicles in anagen, early, mid and late catagen was determined in the different assays.

[1] = test system: human anagen hair follicles; assay: Ki67/TUNEL staining, percentage of proliferating cells, assay #3; conditions: after 9 days of culture, Anagen only
Description: (§1) Assay #3 Culture HF 446: Eight hair follicle cultures (3 follicles/well) were treated with various concentration of test substance as described for 2 days, followed by snap freezing and sectioning of two wells. Six wells were treated up to 9 days, then snap frozen and sectioned. The distribution of test substances and concentrations were as indicted in FIG. 3. The parameter measured after two days was proliferation/apoptosis, and the parameters measured after 9 days were elongation, proportion of cells in proliferation/apoptosis, and hair cycle stage
After nine days, Ki67/TUNEL staining was performed and photos taken.
Proliferating and resting cells as well as cells undergoing apoptosis were counted separately proximal Auber's line. Results are expressed as percentages. For Ki-67/TUNEL staining, fixed sections were incubated for 60 minutes in a solution comprising 30% TdT-enzyme (Chemicon International, Inc., Temecula, Calif., USA; CatNo S1707). 2 mL stop buffer (Chemicon International, Inc.; CatNo S7110), diluted in 68 mL distilled water, was added for 10 minutes to stop the reaction. This was followed by a pre-incubation for 20 minutes with 10% goat serum (Dako Cytomation, CatNo 50114121) and incubation with mouse-anti human Ki-67 antigen (Chemicon International, Inc., CatNo S7110) 1:20 in PBS with 2% goat serum. The fixed section was then washed in PBS, treated with anti-digoxigenin antibody (Chemicon International, Inc., CatNo S7110) (59DI Antibody solution and 5601 Stop solution, 30 minutes) and goat anti-mouse-IgG-rhodamine red (Jackson Immuno Research, Suffolk, UK; CatNo 115-295-062), 1:200 in PBS with 2% goat serum. After washes with PBS, counterstaining with DAPI™ ([…]) (Roche, Basel, Switzerland; CatNo 236276) and further washes with PBS and mounting using Fluoromount (Southern Biotech, Birmingham, Ala., USA; CatNo 0100-01).
After nine days, Ki67/TUNEL staining was performed and photos were taken. In anagen hair follicles, proliferating cells and cells undergoing apoptosis were counted separately proximal Auber's line. Results are expressed as percentages. […] The results are summarized in Table 6 and FIG. 9 showing the mean percentage of Ki6 7 positive cells with SEM

[2] = test system: human anagen VI hair follicles; assay: Hair shaft elongation of organ-cultured hair follicles, assay #2 (culture HF 441)
Description: (§2) Human anagen VI hair follicles were isolated from scalp skin obtained from three different individuals undergoing routine face-lift surgery. All experiments were performed according to Helsinki guidelines.
(§3) Hair follicles were isolated as described (Philpott MP et al, Human hair growth in vitro; J Cell Science 1990, 97(Pt 3):463-71). Isolated HFs were maintained in supplemented, serum-free Williams E medium (Biochrom, Cambridge, UK) supplemented with 2 mMol/L L-glutamine (Invitrogen, Paisley, UK), 10 ng/mL hydrocortisone (Sigma-Aldrich, Taufkirchen, Germany), 10 μg/mL insulin (Sigma-Aldrich), and 1% antibiotic/antimycotic mixture (Gibco, Karlsruhe, Germany). Hair follicles were placed in a 24-well plate with 500 μL medium (day 0) and incubated in a CO2-incubator (5% CO2, 37° C.) over night without any treatment. The next day (day 1) medium was exchanged and test substance was added to each well (5 μL of stock solution was added to 495 μL culture medium). The medium or medium with test substance was changed every 48 hours.
(§4) Hair shaft length measurements were performed every second day on individual hair follicles using a binocular microscope with an eyepiece measuring reticule. The length of the follicle was defined as the distance between the base of the bulb and the cut end of the hair fibre (Philpott MP et al, Human hair growth in vitro; J Cell Science 1990, 97(Pt 3):463-71).
(§5) All data were analysed by two-tailed unpaired t-test (SPSS analysis software SPSS Inc., Chicago, USA). For determination of elongation, two outliers at top and bottom end of value range were eliminated; with the measurement of melanogenesis one outlier at both, top and bottom range, was eliminated. Results are given as mean value and standard error of measurement (SEM).

[3] = test system: human anagen VI hair follicles; assay: Hair shaft elongation of organ-cultured hair follicles, assay #1 (culture HF 429); conditions: for Hair growth compared with control (in words): p<0.05
Description: as §2, §3
Assay #1 Culture HF429: Hair follicles were grown in the wells of a microtiter plate (3 follicles per well) and treated for 9 days with culture medium and test substance as indicated in FIG. 1. Thereafter, elongation, melanogenesis and hair cycle stage were determined.
as §4, §5

[4] = test system: human anagen VI hair follicles; assay: Hair shaft elongation of organ-cultured hair follicles, assay #3 (culture HF 446)
Description: as §2, §3, §1, §4, §5

thymulin
Proportion of HFs in anagen compared with control groups (in words) (human hair follicles; 10 pg and 100 pg/mL, three assays, 9-day treatment): consistently a higher proportion of HFs in anagen than control groups | Mean percentage of Ki67-positive cells ([1]; 10 pg/mL): 31.58 percentage | Mean percentage of Ki67-positive cells ([1]; 100 pg/mL): 35.75 percentage | Mean elongation in % compared to day 0 ([2]; 10 pg/mL, Day 3): 20.86% | Mean elongation in % compared to day 0 ([2]; 10 pg/mL, Day 5): 34.97% | Mean elongation in % compared to day 0 ([2]; 10 pg/mL, Day 7): 43.26% | Mean elongation in % compared to day 0 ([2]; 10 pg/mL, Day 9): 58.90% | Mean elongation in % compared to day 0 ([2]; 10 pg/mL, Day O): 0% | Mean elongation with thymulin in percent compared to day 0 ([3]; 10 pg/mL, Day 0): 0% | Mean elongation with thymulin in percent compared to day 0 ([3]; 10 pg/mL, Day 1): 13.19% | Mean elongation with thymulin in percent compared to day 0 ([3]; 10 pg/mL, Day 3): 37.58% | Mean elongation with thymulin in percent compared to day 0 ([3]; 10 pg/mL, Day 5): 64.05% | Mean elongation with thymulin in percent compared to day 0 ([3]; 10 pg/mL, Day 7): 75.10% | Mean elongation with thymulin in percent compared to day 0 ([3]; 10 pg/mL, Day 9): 90.98% | Mean elongation with thymulin in percent compared to day 0 ([3]; 100 pg/mL, Day 0): 0% | Mean elongation with thymulin in percent compared to day 0 ([3]; 100 pg/mL, Day 1): 11.33% | Mean elongation with thymulin in percent compared to day 0 ([3]; 100 pg/mL, Day 3): 31.50% | Mean elongation with thymulin in percent compared to day 0 ([3]; 100 pg/mL, Day 5): 53.75% | Mean elongation with thymulin in percent compared to day 0 ([3]; 100 pg/mL, Day 7): 68.76% | Mean elongation with thymulin in percent compared to day 0 ([3]; 100 pg/mL, Day 9): 83.13% | Hair growth compared with control (in words) ([3]; 100 pg/mL): significant lack of hair growth | Mean elongation in % compared to day 0 ([4]; 10 pg/mL, Day 0): 0% | Mean elongation in % compared to day 0 ([4]; 10 pg/mL, Day 1): 7.30% | Mean elongation in % compared to day 0 ([4]; 10 pg/mL, Day 3): 45.35% | Mean elongation in % compared to day 0 ([4]; 10 pg/mL, Day 5): 58.41% | Mean elongation in % compared to day 0 ([4]; 10 pg/mL, Day 7): 67.70% | Mean elongation in % compared to day 0 ([4]; 10 pg/mL, Day 9): 78.70% | Mean elongation in % compared to day 0 ([4]; 100 pg/mL, Day 0): 0% | Mean elongation in % compared to day 0 ([4]; 100 pg/mL, Day 1): 5.86% | Mean elongation in % compared to day 0 ([4]; 100 pg/mL, Day 3): 40.11% | Mean elongation in % compared to day 0 ([4]; 100 pg/mL, Day 5): 62.88% | Mean elongation in % compared to day 0 ([4]; 100 pg/mL, Day 7): 80.67% | Mean elongation in % compared to day 0 ([4]; 100 pg/mL, Day 9): 94.36%

Thymosin beta-4 [TB4]
Proportion in catagen compared to control (in words) (human hair follicles; 100 ng, Assay #1 and #3): higher proportion of cells in catagen compared to control | Proportion in the stage of anagen compared with controls (in words) (human hair follicles; 1000 ng/mL, after nine days): consistently more cells in the stage of anagen | Mean percentage of Ki67-positive cells ([1]; 100 ng/mL): 39.30 percentage | Mean percentage of Ki67-positive cells ([1]; 1000 ng/mL): 33.14 percentage | Mean elongation in % compared to day 0 ([2]; 100 ng/mL, Day 3): 19.35% | Mean elongation in % compared to day 0 ([2]; 100 ng/mL, Day 5): 31.66% | Mean elongation in % compared to day 0 ([2]; 100 ng/mL, Day 7): 41.77% | Mean elongation in % compared to day 0 ([2]; 100 ng/mL, Day 9): 49.94% | Mean elongation in % compared to day 0 ([2]; 100 ng/mL, Day O): 0% | Mean elongation in % compared to day 0 ([2]; 1000 ng/mL, Day 3): 21.68% | Mean elongation in % compared to day 0 ([2]; 1000 ng/mL, Day 5): 32.59% | Mean elongation in % compared to day 0 ([2]; 1000 ng/mL, Day 7): 37.48% | Mean elongation in % compared to day 0 ([2]; 1000 ng/mL, Day 9): 43.30% | Mean elongation in % compared to day 0 ([2]; 1000 ng/mL, Day O): 0% | Mean elongation in % compared to day 1 ([3]; 100 ng/mL, Day 0): 0.00% | Mean elongation in % compared to day 1 ([3]; 100 ng/mL, Day 1): 12.26% | Mean elongation in % compared to day 1 ([3]; 100 ng/mL, Day 3): 35.49% | Mean elongation in % compared to day 1 ([3]; 100 ng/mL, Day 5): 49.79% | Mean elongation in % compared to day 1 ([3]; 100 ng/mL, Day 7): 61.36% | Mean elongation in % compared to day 1 ([3]; 100 ng/mL, Day 9): 74.11% | Hair growth compared with control (in words) ([3]; 100 ng/mL): significant lack of hair growth | Mean elongation in % compared to day 1 ([3]; 1000 ng/mL, Day 0): 0.00% | Mean elongation in % compared to day 1 ([3]; 1000 ng/mL, Day 1): 14.20% | Mean elongation in % compared to day 1 ([3]; 1000 ng/mL, Day 3): 39.31% | Mean elongation in % compared to day 1 ([3]; 1000 ng/mL, Day 5): 66.20% | Mean elongation in % compared to day 1 ([3]; 1000 ng/mL, Day 7): 90.23% | Mean elongation in % compared to day 1 ([3]; 1000 ng/mL, Day 9): 103.17% | Mean elongation in % compared to day 0 ([4]; 100 ng/mL, Day 0): 0% | Mean elongation in % compared to day 0 ([4]; 100 ng/mL, Day 1): 5.91% | Mean elongation in % compared to day 0 ([4]; 100 ng/mL, Day 3): 42.55% | Mean elongation in % compared to day 0 ([4]; 100 ng/mL, Day 5): 59.58% | Mean elongation in % compared to day 0 ([4]; 100 ng/mL, Day 7): 73.62% | Mean elongation in % compared to day 0 ([4]; 100 ng/mL, Day 9): 83.13% | Mean elongation in % compared to day 0 ([4]; 1000 ng/mL, Day 0): 0% | Mean elongation in % compared to day 0 ([4]; 1000 ng/mL, Day 1): 8.28% | Mean elongation in % compared to day 0 ([4]; 1000 ng/mL, Day 3): 39.17% | Mean elongation in % compared to day 0 ([4]; 1000 ng/mL, Day 5): 53.52% | Mean elongation in % compared to day 0 ([4]; 1000 ng/mL, Day 7): 65.51% | Mean elongation in % compared to day 0 ([4]; 1000 ng/mL, Day 9): 70.08% | Rate of hair growth compared with control (in words) ([4]; 1000 ng/mL, p<0.05): significantly lowered rate of hair growth
